The values below come from patent US10689399B2, “Substituted 3,4,5,6,8,10,14,14a-octahydro-2h-2,6-methanopyrido[1′,2′:4,5]pyrazino[2,1-b][1,3]oxazocines and methods for treating viral infections” (Gilead Sciences, Inc., priority 2012, dated 2020).

Structures are written as SMILES.

What is called EC50 is the concentration giving half of the maximal effect.

In the first experiment the test system is HIV-IIIb. The experiment can be described thus: Antiviral assay in MT4 cells. The experiment is classed as cell-based. The note with it: Human immunodeficiency virus 1, IIIB, MT4, 120 h, MT4 cells infected with HIV-IIIb, 5 days, CellTiter-Glo; read-out: EC50 nM in MT-4. Here is the method: For the antiviral assay utilizing MT4 cells, 0.4 μL of 189X test concentration of 3-fold serially diluted compound in DMSO was added to 40 μL of cell growth medium (RPMI 1640, 10% FBS, 1% penicilline/Streptomycine, 1% L-Glutamine, 1% HEPES) in each well of 384-well assay plates (10 concentrations) in quidruplicate.
1 mL aliquots of 2×10^6 MT4 cells are pre-infected for 1 and 3 hours respectively at 37° C. with 25 μL (MT4) or of either cell growth medium (mock-infected) or a fresh 1:250 dilution of an HIV-IIIb concentrated ABI stock (0.004 m.o.i. for MT4 cells). Infected and uninfected cells are diluted in cell growth medium and 35 μL of 2000 (for MT4) cells is added to each well of the assay plates.
Assay plates were then incubated in a 37° C. incubator. After 5 days of incubation, 25 μL of 2× concentrated CellTiter-Glo™ Reagent (catalog # G7573, Promega Biosciences, Inc., Madison, Wis.) was added to each well of the assay plate. Cell lysis was carried out by incubating at room temperature for 2-3 minutes, and then chemiluminescence was read using the Envision reader (PerkinElmer).
(In general: In ATP-based viability assays light output follows the ATP content of the culture.)
Turning to `O=C(NCc1cccc(Cl)c1)c1cn2c(c(O)c1=O)C(=O)N1[C@H]3CC[C@H](C3)[C@@H]1C2` [Compound 72, (1R,4S,12aR)—N-(3-chlorobenzyl)-7-hydroxy-6,8-dioxo-1,2,3,4,6,8,12,12a-octahydro-1,4-methanodipyrido[1,2-a:1′,2′-d]pyrazine-9-carboxamide], the EC50 is 4.3 nM.
The same measure, in the same setting: to `O=C(NCc1c(F)cc(F)cc1F)c1cn2c(c(O)c1=O)C(=O)N1[C@H]3CC[C@H](C3)[C@H]1C2` [Compound 55, (1R,4S,12aS)-7-hydroxy-6,8-dioxo-N-(2,4,6-trifluorobenzyl)-1,2,3,4,6,8,12,12a-octahydro-1,4-methanodipyrido[1,2-a:1′,2′-d]pyrazine-9-carboxamide] belongs 1.5 nM.
The same measure, in the same setting: next, `O=C(NCc1cc(Cl)c(F)cc1F)c1cn2c(c(O)c1=O)C(=O)N1[C@H]3CC[C@H](C3)[C@@H]1C2` [Compound 80, (1R,4S,12aR)—N-(5-chloro-2,4-difluorobenzyl)-7-hydroxy-6,8-dioxo-1,2,3,4,6,8,12,12a-octahydro-1,4-methanodipyrido[1,2-a:1′,2′-d]pyrazine-9-carboxamide]: 4.6 nM; `O=C(NCc1c(F)cccc1F)c1cn2c(c(O)c1=O)C(=O)N1[C@@H]3CC[C@@H](C3)O[C@H]1C2` [Compound 46, (13aS)—N-(2,6-difluorobenzyl)-8-hydroxy-7,9-dioxo-2,3,4,5,7,9,13,13a-octahydro-2,5-methanopyrido[1′,2′:4,5]pyrazino[2,1-b][1,3]oxazepine-10-carboxamide]: 2.6 nM; `O=C(NCc1ccc(F)cc1F)c1cn2c(c(O)c1=O)C(=O)N1[C@@H]3CC[C@@H](C3)O[C@H]1C2` (racemic) [Compound 1, N-(2,4-difluorobenzyl)-8-hydroxy-7,9-dioxo-2,3,4,5,7,9,13,13a-octahydro-2,5-methanopyrido[1′,2′:4,5]pyrazino[2,1-b][1,3]oxazepine-10-carboxamide]: 2.6 nM.
On the same count and under the same terms, next, `O=C(NCc1c(F)cc(F)cc1Cl)c1cn2c(c(O)c1=O)C(=O)N1[C@H]3CC[C@H](C3)[C@@H]1C2` [Compound 93, (1R,4S,12aR)—N-(2-chloro-4,6-difluorobenzyl)-7-hydroxy-6,8-dioxo-1,2,3,4,6,8,12,12a-octahydro-1,4-methanodipyrido[1,2-a:1′,2′-d]pyrazine-9-carboxamide]: 2.2 nM; `O=C(NCc1ccc(Cl)cc1F)c1cn2c(c(O)c1=O)C(=O)N1[C@@H]3CC[C@@H](C3)O[C@H]1C2` [Compound 17, (2 S,5R,13aS)—N-(4-chloro-2-fluorobenzyl)-8-hydroxy-7,9-dioxo-2,3,4,5,7,9,13,13a-octahydro-2,5-methanopyrido[1′,2′:4,5]pyrazino[2,1-b][1,3]oxazepine-10-carboxamide]: 5.9 nM.
As for `C[C@@H](NC(=O)c1cn2c(c(O)c1=O)C(=O)N1[C@@H]3CC[C@@H](C3)O[C@H]1C2)c1ccc(F)cc1` [Compound 9, (2S,5R,13aS)—N—((R)-1-(4-fluorophenyl)ethyl)-8-hydroxy-7,9-dioxo-2,3,4,5,7,9,13,13a-octahydro-2,5-methanopyrido[1′,2′:4,5]pyrazino[2,1-b][1,3]oxazepine-10-carboxamide], the EC50 came to 5.1 nM.
The same measure, in the same setting: next, `O=C(NCc1c(Cl)ccc(Cl)c1F)c1cn2c(c(O)c1=O)C(=O)N1[C@H]3CC[C@H](C3)[C@@H]1C2` [Compound 71, (1R,4S,12aR)—N-(3,6-dichloro-2-fluorobenzyl)-7-hydroxy-6,8-dioxo-1,2,3,4,6,8,12,12a-octahydro-1,4-methanodipyrido[1,2-a:1′,2′-d]pyrazine-9-carboxamide]: 2.6 nM.
In the case of `O=C(NCc1ccc(F)cc1C(F)(F)F)c1cn2c(c(O)c1=O)C(=O)N1[C@H]3CC[C@H](C3)[C@@H]1C2` [Compound 67, (1R,4S,12aR)—N-(4-fluoro-2-(trifluoromethyl)benzyl)-7-hydroxy-6,8-dioxo-1,2,3,4,6,8,12,12a-octahydro-1,4-methanodipyrido[1,2-a:1′,2′-d]pyrazine-9-carboxamide], the EC50 worked out at 10.7 nM.
Take `O=C(NCc1c(F)cc(F)cc1F)c1cn2c(c(O)c1=O)C(=O)N1[C@@H]3C[C@@H](C(F)C3F)[C@@H]1C2` (stereo partly drawn) [Compound 103, (1R,4R,12aR)-2,3-difluoro-7-hydroxy-6,8-dioxo-N-(2,4,6-trifluorobenzyl)-1,2,3,4,6,8,12,12a-octahydro-1,4-methanodipyrido[1,2-a:1′,2′-d]pyrazine-9-carboxamide]: the EC50 was determined as 10.3 nM.
Still for that read-out and setting: next, `O=C(NCc1ccc(F)cc1F)c1cn2c(c(O)c1=O)C(=O)N1C(C2)[N@@]2CCC[C@@H]1C2` (stereo partly drawn) [Compound 20, (1S,5R)—N-(2,4-difluorobenzyl)-8-hydroxy-7,9-dioxo-2,3,4,5,7,9,13,13a-octahydro-1,5-methanopyrido[1′,2′:4,5]pyrazino[1,2-a][1,3]diazepine-10-carboxamide]: 3.3 nM; `C[C@@H]1C[C@H]2C[C@@H]1[C@@H]1Cn3cc(C(=O)NCc4c(F)cc(F)cc4F)c(=O)c(O)c3C(=O)N21` [Compound 84, (1S,2R,4 S,12aR)-7-hydroxy-2-methyl-6,8-dioxo-N-(2,4,6-trifluorobenzyl)-1,2,3,4,6,8,12,12a-octahydro-1,4-methanodipyrido[1,2-a:1′,2′-d]pyrazine-9-carboxamide]: 2.9 nM.
Same read-out and setting: to `O=C(NCc1ccc(F)c(Cl)c1F)c1cn2c(c(O)c1=O)C(=O)N1[C@H]3CC[C@H](C3)[C@@H]1C2` [Compound 69, (1R,4S,12aR)—N-(3-chloro-2,4-difluorobenzyl)-7-hydroxy-6,8-dioxo-1,2,3,4,6,8,12,12a-octahydro-1,4-methanodipyrido[1,2-a:1′,2′-d]pyrazine-9-carboxamide] belongs 1.9 nM; to `O=C(NCc1ccc(F)c(Cl)c1)c1cn2c(c(O)c1=O)C(=O)N1[C@H]3CC[C@H](C3)[C@@H]1C2` [Compound 75, (1R,4S,12aR)—N-(3-chloro-4-fluorobenzyl)-7-hydroxy-6,8-dioxo-1,2,3,4,6,8,12,12a-octahydro-1,4-methanodipyrido[1,2-a:1′,2′-d]pyrazine-9-carboxamide], 2.8 nM.
Same read-out and setting: to `O=C(NCc1c(F)cc(F)cc1F)c1cn2c(c(O)c1=O)C(=O)N1[C@H]3CC(F)C(C3)[C@@H]1C2` (stereo in doubt) [Compound 56, (1R,2S,4R,12aR)-2-fluoro-7-hydroxy-6,8-dioxo-N-(2,4,6-trifluorobenzyl)-1,2,3,4,6,8,12,12a-octahydro-1,4-methanodipyrido[1,2-a:1′,2′-d]pyrazine-9-carboxamide] belongs 3.1 nM; to `O=C(NCc1ncccc1C(F)(F)F)c1cn2c(c(O)c1=O)C(=O)N1[C@@H]3CC[C@@H](C3)O[C@H]1C2` [Compound 49, (2 S,5R,13aS)-8-hydroxy-7,9-dioxo-N-((3-(trifluoromethyl)pyridin-2-yl)methyl)-2,3,4,5,7,9,13,13a-octahydro-2,5-methanopyrido[1%2′: 4,5]pyrazino[2,1-b][1,3]oxazepine-10-carboxamide], 33.3 nM.
Regarding `O=C(NCc1ccc(Cl)c(F)c1)c1cn2c(c(O)c1=O)C(=O)N1[C@@H]3CC[C@@H](C3)O[C@H]1C2` [Compound 26, (2 S,5R,13aS)—N-(4-chloro-3-fluorobenzyl)-8-hydroxy-7,9-dioxo-2,3,4,5,7,9,13,13a-octahydro-2,5-methanopyrido[1′,2′: 4,5]pyrazino[2,1-b][1,3]oxazepine-10-carboxamide], the EC50 amounted to 10.3 nM.
Still for that read-out and setting: to `O=C(NCc1c(F)cc(F)cc1F)c1cn2c(c(O)c1=O)C(=O)N1[C@@H]3C[C@@H](C[C@H]3F)[C@@H]1C2` [Compound 82, (1S,3R,4R,12aR)-3-fluoro-7-hydroxy-6,8-dioxo-N-(2,4,6-trifluorobenzyl)-1,2,3,4,6,8,12,12a-octahydro-1,4-methanodipyrido[1,2-a:1′,2′-d]pyrazine-9-carboxamide] belongs 2.9 nM; to `C[C@@H](NC(=O)c1cn2c(c(O)c1=O)C(=O)N1[C@H]3CC[C@H](C3)O[C@@H]1C2)c1ccc(F)cc1F` [Compound 12, (2R,5S,13aR)—N—((R)-1-(2,4-difluorophenyl)ethyl)-8-hydroxy-7,9-dioxo-2,3,4,5,7,9,13,13a-octahydro-2,5-methanopyrido[1′,2′:4,5]pyrazino[2,1-b][1,3]oxazepine-10-carboxamide], 5.9 nM.

Still in this experiment, the particulars now being: Human immunodeficiency virus 1, IIIB, MT4, 120 h, read-out: EC50 nM in MT-4, MT4 cells infected with HIV-IIIb, 5 days, CellTiter-Glo.
Turning to `O=C(NCc1ccc(F)cc1F)c1cn2c(c(O)c1=O)C(=O)N1C(C2)[C@H]2CC[C@@H]1C2` (stereo in doubt) [Compound 38, (1S,4R,12aR)—N-(2,4-difluorobenzyl)-7-hydroxy-6,8-dioxo-1,2,3,4,6,8,12,12a-octahydro-1,4-methanodipyrido[1,2-a:1′,2′-d]pyrazine-9-carboxamide], the EC50 was determined as 1.7 nM.
Turning to `O=C(NCc1ccc(F)cc1F)c1cn2c(c(O)c1=O)C(=O)N1C(C2)[C@H]2CC[C@@H]1C2` (stereo in doubt) [Compound 48, (1S,4R,12aS)—N-(2,4-difluorobenzyl)-7-hydroxy-6,8-dioxo-1,2,3,4,6,8,12,12a-octahydro-1,4-methanodipyrido[1,2-a:1′,2′-d]pyrazine-9-carboxamide], the EC50 stood at 2.7 nM.
